Assay results: patent US7304074B2, “Substituted 1,5-naphthyridine azolinones” (Hoffmann-La Roche Inc., priority 2005, dated 2007)

Experiments:
Format in all cases: biochemical
CDK1/Cyclin B = CDK1/Cyclin B (Homo sapiens, UniProt P06493); assay: CDK1/Cyclin B kinase assay (FlashPlate or HTRF); details: recombinant human CDK1/Cyclin B, Rb substrate; Ki=IC50/(1+[S]/Km)
Procedure: To determine inhibition of CDK1 activity, either FlashPlate™ (NEN™-Life Science Products) assay or HTRF assay was performed. Both types of kinase assays were carried out using recombinant human CDK1/Cyclin B complex. GST-cyclinB (GST-cycB) and CDK1 cDNA clones in baculovirus vectors were provided by Dr. W. Harper at the Baylor College of Medicine, Houston, Tex. Proteins were co-expressed in High Five™ insect cells and the complex was purified on glutathione Sepharose resin (Pharmacia, Piscataway, N.J.) as previously described (Harper, J. W. et al. Cell 1993, 75, 805-816). A 6×-Histidine tagged truncated form of retinoblastoma (Rb) protein (amino acid 386-928) was used as the substrate for the CDK1/Cyclin B assay (the expression plasmid was provided by Dr. Veronica Sullivan, Department of Molecular Virology, Roche Research Centre, Welwyn Garden City, United Kingdom). The Rb protein is a natural substrate for phosphorylation by CDK1 (see Herwig and Strauss Eur. J. Biochem. Vol. 246 (1997) pp. 581-601 and the references cited therein). The expression of the 62 Kd protein was under the control of an IPTG inducible promoter in an M15 E. coli strain. Cells were lysed by sonication and purification was carried out by binding lysates at pH 8.0 to a Ni-chelated agarose column pretreated with 1 mM imidazole. The resin was then washed several times with incrementally decreasing pH buffers to pH 6.0, and eluted with 500 mM imidazole. Eluted protein was dialysed against 20 mM HEPES pH 7.5, 30% glycerol, 200 mM NaCl, and 1 mM DTT. Purified Rb fusion protein stocks were quantitated for protein concentration, aliquoted, and stored at −70° C.
For the FlashPlate kinase assay, 96-well FlashPlates were coated with Rb protein at 10 μg/ml, using 100 μl per well. Plates were incubated at 4° C. overnight or at room temperature for 3 hours on a shaker. To control for nonspecific phosphorylation, one row of wells was coated with 100 μl/well coating buffer (20 mM HEPES, 0.2 M NaCl). Plates were then washed twice with wash buffer (0.01% Tween 20 in phosphate-buffered saline). Compounds to be tested (“test compounds”) were added to the wells at 5×final concentration. Reactions were initiated by immediate addition of 40 μl reaction mix (25 mM HEPES, 20 mM MgCl2, 0.002% Tween 20, 2 mM DTT, 1 μM ATP, 3.3 nM 33P-ATP) and a sufficient amount of enzyme to give counts that were at least 10-fold above background. Plates were incubated at room temperature on a shaker for 30 minutes. Plates were washed four times with the wash buffer, sealed, and counted on the TopCount scintillation counter (Packard Instrument Co., Downers Grove, Ill.). The percent inhibition of Rb phosphorylation, which is a measure of the inhibition of CDK1 activity, was determined according to the following formula:
[formula] where “test compound” refers to the average counts per minute of the test duplicates, “nonspecific” refers to the average counts per minute when no CDK1/Cyclin B, etc., was added, and “total” refers to the average counts per minute when no compound was added. […] The value of the inhibitor constant Ki is calculated by the following: Ki=IC50/(1+[S]/Km), where [S] is the ATP concentration and Km is Michaelis constant.
The Homogeneous Time Resolved Fluorescence (HTRF) kinase assay was carried out in 96-well polypropylene plates (BD Biosciences, Bedford, Mass.). […]

CDK2 = CDK2 (Homo sapiens, UniProt P24941); assay: CDK2 kinase inhibition (selectivity)
CDK4 = CDK4 (Homo sapiens, UniProt P11802); assay: CDK4 kinase inhibition (selectivity)
Chain of CDK4 (P11802 whole entry, species assumed): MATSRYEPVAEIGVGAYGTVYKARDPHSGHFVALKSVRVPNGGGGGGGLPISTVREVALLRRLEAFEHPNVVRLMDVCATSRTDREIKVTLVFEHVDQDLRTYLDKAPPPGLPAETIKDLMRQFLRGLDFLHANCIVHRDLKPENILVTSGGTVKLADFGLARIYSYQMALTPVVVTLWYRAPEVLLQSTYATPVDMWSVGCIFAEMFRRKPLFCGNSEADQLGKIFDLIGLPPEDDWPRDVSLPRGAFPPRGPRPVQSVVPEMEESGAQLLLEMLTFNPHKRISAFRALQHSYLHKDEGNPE
Chain of CDK4 (P24385 whole entry partner, species assumed): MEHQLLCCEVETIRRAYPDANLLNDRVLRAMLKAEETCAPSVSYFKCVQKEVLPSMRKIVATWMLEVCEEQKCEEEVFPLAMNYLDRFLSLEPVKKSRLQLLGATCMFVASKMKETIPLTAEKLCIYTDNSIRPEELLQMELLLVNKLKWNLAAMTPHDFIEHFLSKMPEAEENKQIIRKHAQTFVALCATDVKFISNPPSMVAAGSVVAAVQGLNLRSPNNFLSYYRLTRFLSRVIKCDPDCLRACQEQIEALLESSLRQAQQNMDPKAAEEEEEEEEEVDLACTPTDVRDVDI

Chain of CDK1/Cyclin B (P06493 whole entry, the tested form may be a part): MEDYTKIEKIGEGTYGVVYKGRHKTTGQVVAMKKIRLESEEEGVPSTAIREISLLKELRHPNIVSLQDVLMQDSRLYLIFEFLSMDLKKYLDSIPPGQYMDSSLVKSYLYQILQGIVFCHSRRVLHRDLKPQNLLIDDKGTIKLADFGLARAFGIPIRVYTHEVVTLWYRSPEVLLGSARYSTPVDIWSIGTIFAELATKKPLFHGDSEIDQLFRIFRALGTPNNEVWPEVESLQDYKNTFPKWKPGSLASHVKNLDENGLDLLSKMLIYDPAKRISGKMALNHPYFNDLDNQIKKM
Chain of CDK1/Cyclin B (P14635 whole entry partner, the tested form may be a part): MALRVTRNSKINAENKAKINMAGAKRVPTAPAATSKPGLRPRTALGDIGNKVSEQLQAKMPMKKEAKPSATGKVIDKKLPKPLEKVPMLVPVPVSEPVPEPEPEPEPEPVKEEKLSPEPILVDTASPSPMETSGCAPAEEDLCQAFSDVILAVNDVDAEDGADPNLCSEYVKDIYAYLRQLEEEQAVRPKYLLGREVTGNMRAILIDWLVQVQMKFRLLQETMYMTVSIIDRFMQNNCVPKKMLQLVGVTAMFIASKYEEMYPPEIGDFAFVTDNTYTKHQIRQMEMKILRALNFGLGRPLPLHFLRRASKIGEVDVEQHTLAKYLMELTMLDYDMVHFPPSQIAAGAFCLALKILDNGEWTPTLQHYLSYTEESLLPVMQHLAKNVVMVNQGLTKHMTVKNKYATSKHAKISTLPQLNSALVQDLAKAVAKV

| Ki (CDK1/Cyclin B) [nM] | Ki (CDK2) [nM] | Ki (CDK4) [nM] | Compound |
| --- | --- | --- | --- |
| 539 | > 10000 |  | Cc1cccc(Cl)c1CNC1=NC(=O)/C(=C/c2ccc3ncc(C#N)cc3n2)S1 [Example 17, 6-[2-(2-Chloro-6-methyl-benzylamino)-4-oxo-4H-thiazol-5-ylidenemethyl]-[1,5]naphthyridine-3-carbonitrile] |
| 8 | 18 | > 10000 | CC(C)Oc1c(C#N)cnc2ccc(/C=C3\SC(N)=NC3=O)nc12 [Example 1, 6-(2-Amino-4-oxo-4H-thiazol-5-ylidenemethyl)-4-isopropoxy-[1,5]naphthyridine-3-carbonitrile] |
| 78 | 351 | > 10000 | CC(C)Oc1c(C#N)cnc2ccc(/C=C3\SC(N[C@@H]4C[C@H]4c4ccccc4)=NC3=O)nc12 [Example 3, 4-Isopropoxy-6-[4-oxo-2-(2-phenyl-cyclopropylamino)-4H-thiazol-5-ylidenemethyl]-[1,5]naphthyridine-3-carbonitrile] |
| 47 | 554 | > 10000 | CC(C)Oc1c(C#N)cnc2ccc(/C=C3\SC(NCc4cccs4)=NC3=O)nc12 [Example 4, 4-Isopropoxy-6-{4-oxo-2-[(thiophen-2-ylmethyl)-amino]-4H-thiazol-5-ylidenemethyl}-[1,5]naphthyridine-3-carbonitrile] |
| 150 | 610 | > 10000 | CC(C)Oc1c(C#N)cnc2ccc(/C=C3\SC(NCc4ccccc4Cl)=NC3=O)nc12 [Example 2] |
